The values that follow come from PMC6317155, “Identification of Small Peptides that Inhibit NADPH Oxidase (Nox2) Activation” (Antioxidants, 2018).

Test [1] deals with T1, aiPLA2 activity of recombinant human Prdx6 (Homo sapiens, UniProt P30041).
T1 sequence (P30041 1-224): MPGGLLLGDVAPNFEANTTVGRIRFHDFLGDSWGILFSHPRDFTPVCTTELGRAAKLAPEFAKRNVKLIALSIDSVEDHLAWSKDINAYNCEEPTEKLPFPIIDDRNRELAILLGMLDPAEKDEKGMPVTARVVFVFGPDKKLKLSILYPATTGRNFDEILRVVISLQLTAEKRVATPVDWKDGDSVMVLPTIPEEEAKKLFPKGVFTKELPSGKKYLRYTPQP
The test is described as follows: aiPLA2 (PLA2) activity of recombinant human Prdx6 in vitro, 3H-DPPC liposome substrate. The test is classed as biochemical. Particulars: for Activity (aiPLA2 of recombinant hPrdx6), deletion from N-term: peptides deleted from N-terminus of 16-aa rat-derived SP-A peptide, 3H-DPPC liposomes, 60 min; for Activity (aiPLA2 of recombinant hPrdx6), deletion from N-term / Activity (aiPLA2 of recombinant hPrdx6), deletion from C-term: no-peptide control 94.8; for Activity (aiPLA2 of recombinant hPrdx6), deletion from N-term / Activity (aiPLA2 of recombinant hPrdx6), deletion from C-term / Activity (aiPLA2 of recombinant hPrdx6), human-derived peptides: one assay done in duplicate; for Activity (aiPLA2 of recombinant hPrdx6), deletion from C-term: peptides deleted from C-terminus of 16-aa rat-derived SP-A peptide, and scrambled peptide; for Concentration of peptide for inhibition of aiPLA2 activity by 50%: concentration corrected for purity of the PIP preparation, Figure 2, n = 3; for Activity (aiPLA2 of recombinant hPrdx6), human-derived peptides: deletions from 16-aa human-derived SP-A peptide, no-peptide control 92.0. The procedure: The PLA2 activity of Prdx6 was measured as described previously. The substrate was dipalmitoylphosphatidylcholine (DPPC) with ^3H-9,10-palmitate in the sn-2 position of DPPC incorporated into lung surfactant-like liposomes as described above; substrate was incubated with enzyme for 60 min and activity was calculated from the liberation of ^3H-palmitate as measured by scintillation counting.
The effect of the PIP peptides on the aiPLA2 activity of human recombinant Prdx6 was determined by in vitro assay; the effective concentration of inhibitor was corrected for purity of the PIP preparation. Saturating concentrations of all three peptides (PIP-1, PIP-2, PIP-3) inhibited aiPLA2 activity by ~70% (Figure 2). The basis for the remaining 30% of activity that was not inhibited is unclear.

The target of test [2] is T2, recombinant human peroxiredoxin 6 (Prdx6) (human) (UniProt P30041).
T2 sequence: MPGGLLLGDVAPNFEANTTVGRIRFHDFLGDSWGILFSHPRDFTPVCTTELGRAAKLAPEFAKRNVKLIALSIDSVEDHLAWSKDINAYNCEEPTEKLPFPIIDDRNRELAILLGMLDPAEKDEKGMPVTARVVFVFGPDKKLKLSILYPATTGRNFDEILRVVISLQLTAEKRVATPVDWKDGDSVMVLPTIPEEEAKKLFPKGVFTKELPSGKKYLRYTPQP

Test [3] deals with T2, recombinant human peroxiredoxin 6 (Prdx6) (human). The source holds these as a separate data set.
Test [4] shares this target. This is another data set of the same source.
In test [5] the target is T3, mouse peroxiredoxin 6 (Prdx6), endogenous in lung homogenate (mouse (endogenous in lung)) (UniProt O08709).
T3 sequence: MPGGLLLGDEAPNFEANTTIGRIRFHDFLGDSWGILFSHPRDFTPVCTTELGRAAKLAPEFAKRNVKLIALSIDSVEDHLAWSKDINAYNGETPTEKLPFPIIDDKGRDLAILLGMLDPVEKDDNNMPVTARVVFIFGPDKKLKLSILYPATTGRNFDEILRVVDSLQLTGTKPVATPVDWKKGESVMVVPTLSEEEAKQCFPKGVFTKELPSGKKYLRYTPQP

Test [6] concerns the target T2, recombinant human peroxiredoxin 6 (Prdx6) (human). The source holds these as a separate data set.

Turning to “QTELYEIKHQIL [12-aa N-terminal deletion of rat 16-aa peptide]”, the “Activity (aiPLA2 of recombinant hPrdx6), deletion from N-term” value (shortened to “Activity … from N-term”) in test [1] is reported as 31.5 nmol/min/mg Prot.

Regarding “DEELQTELYEIKHQ [14-aa C-terminal deletion of rat 16-aa peptide]”, in test [1], the “Activity (aiPLA2 of recombinant hPrdx6), deletion from C-term” value (from here on “Activity … from C-term”) is reported as 102 nmol/min/mg Prot.

On to LYEIKHQIL [PIP-1], for which the “Activity … from N-term” value in test [1] stood at 32.3 nmol/min/mg Prot. Further, the “Inhibition of aiPLA2 activity at saturating concentrations of peptide” value in test [1] (recombinant human Prdx6, Figure 2, mean + SEM, n = 3) was ~ 70%. The “Concentration of peptide for inhibition of aiPLA2 activity by 50%” value in test [1] (recombinant human Prdx6) was ~ 8.3 µg/mg Prdx6.

“ELYEIKHQI [9-aa peptide lacking the C-terminal Leu]”: in test [1], the “Activity … from C-term” value is 89.6 nmol/min/mg Prot.

Turning to “LELDEEITEYQKQLHI [Scrambled peptide, scrambled 16-aa control peptide, reference compound]”, the “Activity … from C-term” value in test [1] stood at 93.5 nmol/min/mg Prot.

In the case of “TLHDFRHQI [9-aa human peptide with C-terminal aa deleted]”, in test [1], the “Activity (aiPLA2 of recombinant hPrdx6), human-derived peptides” value (“Activity … human-derived peptides” for short) is 89.6 nmol/min/mg Prot.

“DEELQTEL [8-aa C-terminal deletion of rat 16-aa peptide]”: the “Activity … from C-term” value in test [1] stood at 93.6 nmol/min/mg Prot.

As for LYDIRHQIL [PIP-3], in test [1], the “Inhibition of aiPLA2 activity of human recombinant Prdx6” value is ~ 70%. In addition, in test [1] (recombinant human Prdx6), the “Concentration of peptide for inhibition of aiPLA2 activity by 50%” value was ~ 10 µg/mg Prdx6.

As for “DEELQATLHDFRHQIL [16 aa human SP-A-derived peptide]”, the “Activity … human-derived peptides” value in test [1] was 45.0 nmol/min/mg Prot.

In the case of “ELQTELYEIKHQIL [14-aa N-terminal deletion of rat 16-aa peptide]”, in test [1], the “Activity … from N-term” value was 33.2 nmol/min/mg Prot.

Turning to “YEIKHQIL [8-aa N-terminal deletion of rat 16-aa peptide]”, the “Activity … from N-term” value in test [1] is 94.4 nmol/min/mg Prot.

Turning to “ELYEIKHQIL [10-aa N-terminal deletion of rat 16-aa peptide]”, in test [1], the “Activity … from N-term” value is reported as 28.6 nmol/min/mg Prot.

Regarding “TLHDFRHQIL [10-aa N-terminal deletion of human 16-aa peptide]”, the “Activity … human-derived peptides” value in test [1] is 31.5 nmol/min/mg Prot.

Turning to DEELQTELYEIKHQIL, in test [1], the “Activity … from C-term” value is given as 32.0 nmol/min/mg Prot and the “Activity … from N-term” value came out at 32.0 nmol/min/mg Prot.

For the molecule LYDIRHQIL [PLA2-inhibitory peptide 3 (PIP-3), hybrid of PIP-1 and PIP-2], the inhibition of aiPLA2 activity by the hybrid nine-aa peptide in test [2] is 70%. In addition, in test [3], the concentration of peptide for inhibition of aiPLA2 activity by 50% worked out at 10 µg/mg Prdx6; the inhibition of the aiPLA2 activity of human recombinant Prdx6 in vitro against peptide concentration, up to saturating concentrations came out at 70%; the molar stoichiometry of peptide to Prdx6 monomer worked out from the PIP to Prdx6 ratio at maximal inhibition of aiPLA2 activity (peptide to Prdx6 monomer, molar) turned out to be 1.5.

For LYEIKHQIL [PLA2-inhibitory peptide 1 (PIP-1), rat/mouse SP-A nine-aa peptide], in test [3], the concentration of peptide for inhibition of aiPLA2 activity by 50% is 8.3 µg/mg Prdx6; the inhibition of the aiPLA2 activity of human recombinant Prdx6 in vitro against peptide concentration, up to saturating concentrations was found to be 70%; the molar stoichiometry of peptide to Prdx6 monomer worked out from the PIP to Prdx6 ratio at maximal inhibition of aiPLA2 activity (peptide to Prdx6 monomer, molar) amounted to 1.5. Also, in test [4], the aiPLA2 activity of recombinant hPrdx6 with the peptide (no peptide: 94.8; scrambled peptide: 93.5) (nmol/min/mg Prot.) was 32.3.

In the case of LHDFRHQIL [PLA2-inhibitory peptide 2 (PIP-2), human SP-A nine-aa peptide], the inhibition of PLA2 activity at pH 4 without Ca2+ (aiPLA2) of wild type mouse lung homogenate after addition of PIP-2 to the assay in test [5] came out at 91%. Besides, in test [3], the concentration of peptide for inhibition of aiPLA2 activity by 50% stood at 6.6 µg/mg Prdx6; the inhibition of the aiPLA2 activity of human recombinant Prdx6 in vitro against peptide concentration, up to saturating concentrations was 70%; the molar stoichiometry of peptide to Prdx6 monomer worked out from the PIP to Prdx6 ratio at maximal inhibition of aiPLA2 activity (peptide to Prdx6 monomer, molar) was 1.5. The aiPLA2 activity of recombinant hPrdx6 with the peptide (no peptide: 92.0) (nmol/min/mg Prot.) in test [6] was found to be 29.9.
